These results are taken from PubChem BioAssay AID248 (DTP/NCI, 2004).

Where “and” joins values, the source holds several entries; their conditions need not be identical. Equal values may be shown once. Toxic doses and inconclusive results are not listed.

For this assay, the system named is L1210 leukemia ip in BDF1 mice, survival T/C. Briefly: NCI In Vivo Anticancer Drug Screen. Data for tumor model L1210 Leukemia (intraperitoneal) in B6D2F1 (BDF1) mice. To be noted: endpoint: mean survival time, higher = longer survival. The method, boiled down: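 Mice bearing the transplanted tumor received compound or vehicle. Survival of the treated group was divided by that of the vehicle-treated control group to give the ratio.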

Setting [1] is: dose: 100.0 mg/kg/injection, schedule: Q04DX003 (ip), vehicle: saline.
Setting [2] is: dose: 200.0 mg/kg/injection, schedule: Q04DX003 (ip), vehicle: saline.
Setting [3] is: dose: 400.0 mg/kg/injection, schedule: Q04DX003 (ip), vehicle: saline.
The mark [4] stands for this setting: dose: 75.0 mg/kg/injection, schedule: Q01DX001 (ip), vehicle: saline.
Where [5] appears, read: dose: 100.0 mg/kg/injection, schedule: Q04DX002 (ip), vehicle: Klucel (hydroxypropylcellulose) (HPC).
Where [6] appears, read: dose: 100.0 mg/kg/injection, schedule: Q04DX003 (ip), vehicle: Klucel (hydroxypropylcellulose) (HPC).
Where [7] appears, read: dose: 200.0 mg/kg/injection, schedule: Q04DX003 (ip), vehicle: Klucel (hydroxypropylcellulose) (HPC).
Setting [8] is: dose: 400.0 mg/kg/injection, schedule: Q04DX003 (ip), vehicle: Klucel (hydroxypropylcellulose) (HPC).

Turning to `Cc1ccc(-n2c(=O)c(N=Nc3ccc(Br)cc3)c(O)n(-c3ccccc3C)c2=S)cc1`, the T/C was 95 % of control (dose: 100.0 mg/kg/injection, schedule: Q01DX001 (ip), vehicle: Klucel (hydroxypropylcellulose) (HPC)); 88 % of control (dose: 200.0 mg/kg/injection, schedule: Q01DX001 (ip), vehicle: Klucel (hydroxypropylcellulose) (HPC)); 88 % of control (dose: 400.0 mg/kg/injection, schedule: Q01DX001 (ip), vehicle: Klucel (hydroxypropylcellulose) (HPC)).

Regarding `NCCSSCCN`, the T/C by setting is: (dose: 24.0 mg/kg/injection, schedule: Q04DX002 (ip), vehicle: saline with Tween-80) 98 % of control; (dose: 60.0 mg/kg/injection, schedule: Q04DX002 (ip), vehicle: saline with Tween-80) 95 % of control; (dose: 100.0 mg/kg/injection, schedule: Q04DX002 (ip), vehicle: saline) 93 % of control; (dose: 150.0 mg/kg/injection, schedule: Q04DX002 (ip), vehicle: saline with Tween-80) 91 % of control; (dose: 200.0 mg/kg/injection, schedule: Q04DX002 (ip), vehicle: saline) 107 % of control.

On to `O=NN(CCCl)C(=O)NC1(C(=O)O)CCCC1`, for which the T/C reads like this: (dose: 15.0 mg/kg/injection, schedule: Q01DX001 (ip), vehicle: saline with Tween-80) 109 % of control; (dose: 23.0 mg/kg/injection, schedule: Q01DX001 (ip), vehicle: saline with Tween-80) 113 % of control; (dose: 50.0 mg/kg/injection, schedule: Q01DX001 (ip), vehicle: Klucel (hydroxypropylcellulose) (HPC)) 121 % of control; (dose: 75.0 mg/kg/injection, schedule: Q01DX001 (ip), vehicle: Klucel (hydroxypropylcellulose) (HPC)) 172 % of control; (dose: 75.0 mg/kg/injection, schedule: Q01DX001 (ip), vehicle: carboxymethylcellulose (CMC)) 162 % of control; (dose: 80.0 mg/kg/injection, schedule: Q01DX001 (ip), vehicle: saline with Tween-80) 152 % of control. Further, the T/C is, setting by setting: (dose: 112.0 mg/kg/injection, schedule: Q01DX001 (ip), vehicle: Klucel (hydroxypropylcellulose) (HPC)) 243 % of control; (dose: 112.0 mg/kg/injection, schedule: Q01DX001 (ip), vehicle: carboxymethylcellulose (CMC)) 168 % of control; (dose: 119.0 mg/kg/injection, schedule: Q01DX001 (ip), vehicle: saline with Tween-80) 252 % of control; (dose: 168.0 mg/kg/injection, schedule: Q01DX001 (ip), vehicle: Klucel (hydroxypropylcellulose) (HPC)) 310 % of control; (dose: 168.0 mg/kg/injection, schedule: Q01DX001 (ip), vehicle: carboxymethylcellulose (CMC)) 272 % of control; (dose: 178.0 mg/kg/injection, schedule: Q01DX001 (ip), vehicle: saline with Tween-80) 274 % of control. In addition, the T/C runs as follows: (dose: 252.0 mg/kg/injection, schedule: Q01DX001 (ip), vehicle: Klucel (hydroxypropylcellulose) (HPC)) 106 % of control; (dose: 252.0 mg/kg/injection, schedule: Q01DX001 (ip), vehicle: carboxymethylcellulose (CMC)) 89 % of control; (dose: 266.0 mg/kg/injection, schedule: Q01DX001 (ip), vehicle: saline with Tween-80) 246 % of control.

As to `CN(C)/C=N/n1cnnc1`, the T/C was 94 % of control under setting [1], 98 % of control under setting [2] and 102 % of control under setting [3].

With `Cn1c(=O)cc(C=Nc2ccc(S(N)(=O)=O)cc2)c2ccccc21`, the T/C (dose: 100.0 mg/kg/injection, schedule: Q01DX001 (ip), vehicle: saline) was 102 % of control; the T/C (dose: 200.0 mg/kg/injection, schedule: Q01DX001 (ip), vehicle: saline) is 100 % of control; the T/C (dose: 400.0 mg/kg/injection, schedule: Q01DX001 (ip), vehicle: saline) was 98 % of control.

As to `CCCCCC[Si](Cl)(Cl)Cl`, the T/C runs as follows: under setting [4], 101 % of control; (dose: 150.0 mg/kg/injection, schedule: Q01DX001 (ip), vehicle: saline) 91 % of control.

On to `CCP(C)(C)=S`, for which the T/C runs as follows: (dose: 25.0 mg/kg/injection, schedule: Q04DX002 (ip), vehicle: Klucel (hydroxypropylcellulose) (HPC)) 101 % of control; (dose: 50.0 mg/kg/injection, schedule: Q04DX002 (ip), vehicle: Klucel (hydroxypropylcellulose) (HPC)) 101 % of control; under setting [5], 108 % of control.

Consider `C=CC[P+](Cc1ccccc1)(c1ccccc1)c1ccccc1`, for which the T/C reads like this: (dose: 3.13 mg/kg/injection, schedule: Q01DX009 (ip), vehicle: saline with Tween-80) 98 % of control; (dose: 6.25 mg/kg/injection, schedule: Q01DX009 (ip), vehicle: saline with Tween-80) 107 % of control; (dose: 12.5 mg/kg/injection, schedule: Q01DX009 (ip), vehicle: saline with Tween-80) 104 % of control and 115 % of control.

Turning to `CCCCCCCCOP(OCCCCCCCC)OCCCCCCCC`, the T/C under setting [1] was 95 % of control, the T/C under setting [2] is 98 % of control and the T/C under setting [3] is 104 % of control.

As to `O=C1CC2CCCCN2C2=C1CCCC2` (configuration not stated), the T/C (dose: 25.0 mg/kg/injection, schedule: Q01DX009 (ip), vehicle: alcohol) was 101 % of control; the T/C (dose: 50.0 mg/kg/injection, schedule: Q01DX009 (ip), vehicle: alcohol) was 98 % of control; the T/C (dose: 100.0 mg/kg/injection, schedule: Q01DX009 (ip), vehicle: alcohol) is 93 % of control.

Consider `O=C(CBr)c1ccc2c3c(cccc13)C=C2`, for which the T/C under setting [4] was 98 % of control.

Take `C/C(=C\C(=N\NC(=N)N)c1ccccc1)c1ccccc1`: the T/C runs as follows: (dose: 1.87 mg/kg/injection, schedule: Q01DX Z (ip), vehicle: carboxymethylcellulose (CMC)) 94 % of control; (dose: 3.75 mg/kg/injection, schedule: Q01DX Z (ip), vehicle: carboxymethylcellulose (CMC)) 97 % of control; (dose: 7.5 mg/kg/injection, schedule: Q01DX Z (ip), vehicle: carboxymethylcellulose (CMC)) 88 % of control; (dose: 7.5 mg/kg/injection, schedule: Q01DX Z (oral), vehicle: carboxymethylcellulose (CMC)) 108 % of control; (dose: 15.0 mg/kg/injection, schedule: Q01DX Z (ip), vehicle: carboxymethylcellulose (CMC)) 98 % of control; (dose: 15.0 mg/kg/injection, schedule: Q01DX Z (oral), vehicle: carboxymethylcellulose (CMC)) 106 % of control. Moreover, the T/C is, setting by setting: (dose: 30.0 mg/kg/injection, schedule: Q01DX Z (oral), vehicle: carboxymethylcellulose (CMC)) 100 % of control; (dose: 60.0 mg/kg/injection, schedule: Q01DX Z (oral), vehicle: carboxymethylcellulose (CMC)) 108 % of control.

With `O=S(=O)(OCC(F)(F)F)c1ccccc1`, the T/C (dose: 100.0 mg/kg/injection, schedule: Q01DX009 (ip), vehicle: Klucel (hydroxypropylcellulose) (HPC)) was 103 % of control; the T/C under setting [6] was 97 % of control; the T/C (dose: 200.0 mg/kg/injection, schedule: Q01DX009 (ip), vehicle: Klucel (hydroxypropylcellulose) (HPC)) was 101 % of control; the T/C under setting [7] was 102 % of control; the T/C under setting [8] is 103 % of control.

As to `COc1ccc(OC)c(NC(=O)Oc2ccc(Cl)cc2C)c1`, the T/C is 97 % of control under setting [6], 98 % of control under setting [7] and 97 % of control under setting [8].

For the molecule `Cc1cc(O)c(O)c(S(=O)(=O)c2ccccc2)c1`, the T/C was 94 % of control (dose: 87.5 mg/kg/injection, schedule: Q01DX009 (ip), vehicle: saline with Tween-80); 96 % of control (dose: 175.0 mg/kg/injection, schedule: Q01DX009 (ip), vehicle: saline with Tween-80); 100 % of control (dose: 350.0 mg/kg/injection, schedule: Q01DX009 (ip), vehicle: saline with Tween-80).

In the case of `CCOCCN=Cc1c[nH]c2ccccc12`, the T/C runs as follows: under setting [6], 98 % of control; under setting [7], 95 % of control; under setting [8], 98 % of control.

Take `Fc1ccc(NC(=S)Nc2ccccc2)cc1`: the T/C is, setting by setting: under setting [5], 108 % of control; (dose: 200.0 mg/kg/injection, schedule: Q04DX002 (ip), vehicle: Klucel (hydroxypropylcellulose) (HPC)) 116 % of control; (dose: 400.0 mg/kg/injection, schedule: Q04DX002 (ip), vehicle: Klucel (hydroxypropylcellulose) (HPC)) 97 % of control.

For `CC(C)(C)SC1CC(=O)OC1=O` (configuration not stated), the T/C runs as follows: (dose: 87.5 mg/kg/injection, schedule: Q04DX003 (ip), vehicle: saline with Tween-80) 102 % of control; (dose: 175.0 mg/kg/injection, schedule: Q04DX003 (ip), vehicle: saline with Tween-80) 106 % of control; (dose: 350.0 mg/kg/injection, schedule: Q04DX003 (ip), vehicle: saline with Tween-80) 109 % of control.
